From patent US20230127944A1, “BROAD-SPECTRUM CARBAPENEMS” (priority 2019, published 2023)

Columns and labels:
Format in all cases: cell-based
P. aeruginosa Paeβ-17 = assay: broth microdilution MIC assay, P. aeruginosa Paeβ-17; details: Pseudomonas aeruginosa, read-out: MIC, P. aeruginosa Paeβ-17
In short: (§1)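 Growth inhibition was measured by CLSI-based broth microdilution. Log-phase cultures in Mueller-Hinton broth with divalent cations were seeded at 5×10^5 CFU/mL into 2-fold serial compound dilutions and incubated 16-20 hours at 37° C before the MIC was scored by eye.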

S. aureus USA 600 = assay: broth microdilution MIC assay, S. aureus USA600; details: Staphylococcus aureus; S. aureus USA600 (MRSA); read-out: MIC, S. aureus USA600
In short: as §1

[1] = system: E. coli ATCC 25922 (wild-type/QC strain); assay: broth microdilution MIC assay, E. coli 25922; details: Escherichia coli, ATCC25922; read-out: MIC, E. coli 25922
In short: as §1

S. aureus USA 300 = assay: broth microdilution MIC assay, S. aureus USA300; details: Staphylococcus aureus; S. aureus USA300 (MRSA); read-out: MIC, S. aureus USA300
In short: as §1

[2] = system: P. aeruginosa ΔmexAB-OprM (an efflux pump knockout); assay: broth microdilution MIC assay, P. aeruginosa ΔmexAB-OprM; details: Pseudomonas aeruginosa, read-out: MIC, P. aeruginosa ΔmexAB-OprM
In short: as §1

[3] = system: S. aureus ATCC 33591 (methicillin-resistant); assay: broth microdilution MIC assay, S. aureus 33591; details: Staphylococcus aureus, ATCC33591; S. aureus 33591, methicillin-resistant; read-out: MIC, S. aureus 33591
In short: as §1

[4] = system: P. aeruginosa 35151 (hyper-permeable strain); assay: broth microdilution MIC assay, P. aeruginosa 35151; details: Pseudomonas aeruginosa, read-out: MIC, P. aeruginosa 35151
In short: as §1

[5] = system: P. aeruginosa ATCC 27853 (wild-type/QC strain); assay: broth microdilution MIC assay, P. aeruginosa 27853; details: Pseudomonas aeruginosa, ATCC27853; read-out: MIC, P. aeruginosa 27853
In short: as §1

[6] = system: Methicillin Resistant S. aureus (MRSA) clinical isolates; assay: expanded MIC profiling, MRSA clinical isolates; details: Staphylococcus aureus
Procedure: (§2) To evaluate the activity of selected example compounds against clinical isolates of target species, standard cell-based broth microdilution MIC assays were employed. A panel of 20 clinical isolates of P. aeruginosa and 20 clinical isolates of Methicillin Resistant S. aureus (MRSA) from Lankenau Medical Center (Wynnewood, Pa.) were used. In the set of P. aeruginosa isolates, the compounds were also tested in combination with a β-lactamase inhibitor (taniborbactam), to evaluate the potential benefit of inhibiting β-lactamase enzymes. The assay was conducted in Cation Adjusted Mueller Hinton Broth (CAMHB, BD #212322, BD Diagnostic Systems, Sparks, Md.). Bacteria strains were grown for 3-5 hours in CAMHB. Compounds were added to a microtiter plate in 2-fold serial dilutions in CAMHB. For plates receiving β-lactamase inhibitor, taniborbactam was added to obtain a final fixed concentration of 4 μg/mL. Once the test articles were added, the plates were inoculated according to CLSI broth microdilution method. After inoculation, the plates were incubated for 16-20 hours at 37° C. then the Minimal Inhibitory Concentration (MIC) of the test compound is determined visually. Values for concentration required to inhibit growth of […] (MIC50) and 90% (MIC90) of isolates were determined.

[7] = system: P. aeruginosa clinical isolates; assay: expanded MIC profiling, P. aeruginosa clinical isolates; details: Pseudomonas aeruginosa
Procedure: as §2

[8] = panel of S. aureus (MRSA) isolates of Table 5
[9] = panel of 20 P. aeruginosa clinical isolates

C[C@@H](O)[C@H]1C(=O)N2C(C(=O)O)=C(S[C@H]3C[C@H](N[C@H]4CC[C@@H](N)C4)C3)[C@H](C)[C@H]12 [Example 74, (4R,5S,6S)-3-(((1S,3R)-3-(((1S,3R)-3-aminocyclopentyl)amino)cyclobutyl)thio)-6-((R)-1-hydroxyethyl)-4-methyl-7-oxo-1-azabicyclo[3.2.0]hept-2-ene-2-carboxylic acid]
1 to 4 µg/mL: MIC (P. aeruginosa Paeβ-17) | MIC (S. aureus USA 600)
< 1 µg/mL: MIC [1] | MIC [4]
8 to 32 µg/mL: MIC (S. aureus USA 300) | MIC [2] | MIC [3] | MIC [5]

C[C@@H](O)[C@H]1C(=O)N2C(C(=O)O)=C(S[C@H]3C[C@@H](N[C@H]4CC[C@H](N)C4)C3)[C@H](C)[C@H]12 [Example 75, (4R,5S,6S)-3-(((1R,3S)-3-(((1S,3S)-3-aminocyclopentyl)amino)cyclobutyl)thio)-6-((R)-1-hydroxyethyl)-4-methyl-7-oxo-1-azabicyclo[3.2.0]hept-2-ene-2-carboxylic acid]
1 to 4 µg/mL: MIC (P. aeruginosa Paeβ-17) | MIC (S. aureus USA 600) | MIC (S. aureus USA 300) | MIC [5]
< 1 µg/mL: MIC [1] | MIC [4]
8 to 32 µg/mL: MIC [2] | MIC [3]

C[C@@H](O)[C@H]1C(=O)N2C(C(=O)O)=C(S[C@H]3C[C@@H](N[C@H]4CC[C@@H](N)C4)C3)[C@H](C)[C@H]12 [Example 76, (4R,5S,6S)-3-(((1R,3S)-3-(((1S,3R)-3-aminocyclopentyl)amino)cyclobutyl)thio)-6-((R)-1-hydroxyethyl)-4-methyl-7-oxo-1-azabicyclo[3.2.0]hept-2-ene-2-carboxylic acid]
1 to 4 µg/mL: MIC (P. aeruginosa Paeβ-17) | MIC (S. aureus USA 600) | MIC (S. aureus USA 300) | MIC [5]
< 1 µg/mL: MIC [1] | MIC [4]
8 to 32 µg/mL: MIC [2] | MIC [3]

C[C@@H](O)[C@H]1C(=O)N2C(C(=O)O)=C(S[C@H]3C[C@@H](N[C@@H]4CC[C@H](N)C4)C3)[C@H](C)[C@H]12 [Example 77, (4R,5S,6S)-3-(((1S,3S)-3-(((1R,3S)-3-aminocyclopentyl)amino)cyclobutyl)thio)-6-((R)-1-hydroxyethyl)-4-methyl-7-oxo-1-azabicyclo[3.2.0]hept-2-ene-2-carboxylic acid]
8 to 32 µg/mL: MIC [2] | MIC [3]
< 1 µg/mL: MIC [1] | MIC [4]
1 to 4 µg/mL: MIC (P. aeruginosa Paeβ-17) | MIC (S. aureus USA 600) | MIC (S. aureus USA 300) | MIC [5]

C[C@@H](O)[C@H]1C(=O)N2C(C(=O)O)=C(S[C@H]3C[C@@H](N[C@@H]4CC[C@@H](N)C4)C3)[C@H](C)[C@H]12 [Example 78, (4R,5S,6S)-3-(((1S,3S)-3-(((1R,3R)-3-aminocyclopentyl)amino)cyclobutyl)thio)-6-((R)-1-hydroxyethyl)-4-methyl-7-oxo-1-azabicyclo[3.2.0]hept-2-ene-2-carboxylic acid]
1 to 4 µg/mL: MIC (P. aeruginosa Paeβ-17) | MIC (S. aureus USA 600) | MIC (S. aureus USA 300) | MIC [5]
< 1 µg/mL: MIC [1] | MIC [4]
8 to 32 µg/mL: MIC [2] | MIC [3]

C[C@@H](O)[C@H]1C(=O)N2C(C(=O)O)=C(S[C@H]3C[C@H](N[C@@H]4CC[C@H](NC(=N)N)C4)C3)[C@H](C)[C@H]12 [Example 79, (4R,5S,6S)-3-(((1R,3R)-3-(((1R,3S)-3-guanidinocyclopentyl)amino)cyclobutyl)thio)-6-((R)-1-hydroxyethyl)-4-methyl-7-oxo-1-azabicyclo[3.2.0]hept-2-ene-2-carboxylic acid]
< 1 µg/mL: MIC [1] | MIC [4]
8 to 32 µg/mL: MIC [2] | MIC [3]
1 to 4 µg/mL: MIC (P. aeruginosa Paeβ-17) | MIC (S. aureus USA 600) | MIC (S. aureus USA 300) | MIC [5]

C[C@@H](O)[C@H]1C(=O)N2C(C(=O)O)=C(S[C@@H]3CN[C@H](C(=O)N(C)C)C3)[C@H](C)[C@H]12 [Meropenem, reference compound]
< 0.25 µg/mL: MIC ([7]; P. aeruginosa clinical isolate Lankenau 26)
1 µg/mL: MIC ([7]; P. aeruginosa clinical isolate Lankenau 11) | MIC ([7]; P. aeruginosa clinical isolate Lankenau 13) | MIC ([7]; P. aeruginosa clinical isolate Lankenau 15) | MIC ([7]; P. aeruginosa clinical isolate Lankenau 17) | MIC ([7]; P. aeruginosa clinical isolate Lankenau 19) | MIC ([7]; P. aeruginosa clinical isolate Lankenau 21) | MIC90 [7, 9]
4 µg/mL: MIC ([6]; MRSA, S. aureus clinical isolate LH-SA3) | MIC ([6]; MRSA, S. aureus clinical isolate LH-SA9) | MIC ([6]; MRSA, S. aureus clinical isolate LH-SA23) | MIC ([6]; MRSA, S. aureus clinical isolate LH-SA24) | MIC ([6]; MRSA, S. aureus clinical isolate LH-SA26) | MIC ([6]; MRSA, S. aureus clinical isolate LH-SA33) | MIC ([6]; MRSA, S. aureus clinical isolate LH-SA37) | MIC ([6]; MRSA, S. aureus clinical isolate LH-SA39) | MIC ([6]; MRSA, S. aureus clinical isolate LH-SA40) | MIC ([6]; MRSA, S. aureus clinical isolate LH-SA41) | MIC ([6]; MRSA, S. aureus clinical isolate LH-SA48) | MIC ([6]; MRSA, S. aureus clinical isolate LH-SA49) | MIC ([6]; MRSA, S. aureus clinical isolate LH-SA50) | MIC50 [6, 8] | MIC ([7]; P. aeruginosa clinical isolate Lankenau 24)
0.5 µg/mL: MIC ([7]; P. aeruginosa clinical isolate Lankenau 12) | MIC ([7]; P. aeruginosa clinical isolate Lankenau 14) | MIC ([7]; P. aeruginosa clinical isolate Lankenau 16) | MIC ([7]; P. aeruginosa clinical isolate Lankenau 18) | MIC ([7]; P. aeruginosa clinical isolate Lankenau 20) | MIC ([7]; P. aeruginosa clinical isolate Lankenau 22) | MIC ([7]; P. aeruginosa clinical isolate Lankenau 23) | MIC ([7]; P. aeruginosa clinical isolate Lankenau 25) | MIC ([7]; P. aeruginosa clinical isolate Lankenau 27) | MIC ([7]; P. aeruginosa clinical isolate Lankenau 28) | MIC ([7]; P. aeruginosa clinical isolate Lankenau 29) | MIC ([7]; P. aeruginosa clinical isolate Lankenau 30) | MIC50 [7, 9]
32 µg/mL: MIC ([6]; ATCC 33591 / MRSA, S. aureus ATCC-33591) | MIC ([6]; MRSA, S. aureus clinical isolate LH-SA38)
8 µg/mL: MIC ([6]; MRSA, S. aureus clinical isolate LH-SA34) | MIC ([6]; MRSA, S. aureus clinical isolate LH-SA42) | MIC ([6]; MRSA, S. aureus clinical isolate LH-SA44)
16 µg/mL: MIC ([6]; MRSA, S. aureus clinical isolate LH-SA29) | MIC ([6]; MRSA, S. aureus clinical isolate LH-SA45) | MIC90 [6, 8]
